As usually defined, the logP is a log measure of how a compound divides between an organic and an aqueous phase. Lower therefore signals lower lipophilicity. By chromatographic logP is commonly meant lipophilicity estimated from chromatographic retention.

Structures are written as SMILES. Marks after values point to notes of the source that are not given here.

One data set is described as follows: Measurement of logP values by HPLC on reversed phase columns (EEC directive 79/831 Annex V.A8). It is filed as physicochemical. To be noted: pH 2.7.
The compound `CC(=O)Nc1cccc(Nc2ncnc(-c3ccnc(C(=O)N(C)C(C)C)c3)n2)c1` [B309] displayed a logP of 1.81.

`COC(=O)c1cc(-c2ncnc(Nc3ccc(Br)c(OC)c3)n2)ccn1` [B421] displayed a lipophilicity (logP) of 2.90. The compound `CCCN(C)C(=O)c1cc(-c2ccnc(Nc3ccnc(Cl)c3)n2)ccn1` [Example A13] came in with a logP of 2.2. `CCN1CCCC(NC(=O)c2cc(-c3ncnc(Nc4cccc(Cl)c4)n3)ccn2)C1` (stereo not drawn) [B122]: the logP came to 1.82. As for `O=C(c1cc(-c2ncnc(Nc3ccc(F)c(Cl)c3)n2)ccn1)N1CCCC1` [B190], the logP was determined as 3. `CCCN(C)C(=S)c1cc(-c2ncnc(Nc3ccc(F)c(C(F)F)c3)n2)ccn1` [Example B334] had a log partition coefficient (logP) of 3.4. Same read-out and setting: in the case of `O=C(NCC1CC1)c1cc(-c2ncnc(Nc3ccc(F)c(Cl)c3)n2)ccn1` [B198] it was 3.83; in that of `CN(CC1CC1)C(=O)c1cc(-c2ncnc(Nc3cccc(C(F)(F)F)c3)n2)ccn1` [Example B357], 3.33. `O=C(NC1CC1)c1cc(-c2ncnc(Nc3cccc(Cl)c3)n2)ccn1` [Example B57] gave a logP of 3.05. On the same count and under the same terms, in the case of `CCN(C)C(=S)c1cc(-c2ncnc(Nc3ccccc3)n2)ccn1` [Example B318] it was 2.73; in that of `CC1(C)CCCN(C(=O)c2cc(-c3ncnc(Nc4cccc(Cl)c4)n3)ccn2)C1` [Example B147], 3.83. Same read-out and setting: the same measure for `CC1CCN(C(=O)c2cc(-c3ncnc(Nc4cccc(Cl)c4)n3)ccn2)CC1` [Example B131]: 3.51; for `CN(CC1CC1)C(=O)c1cc(-c2ncnc(Nc3cccc(F)c3)n2)ccn1` [Example B4]: 2.82; for `CC(C)CN(C)C(=O)c1cc(-c2ncnc(Nc3ccc(F)c(F)c3)n2)ccn1` [Example B380]: 3.19.

Take `COCCN(C)C(=O)c1cc(-c2ncnc(Nc3cccc(OC)c3)n2)ccn1` [Example B280]: the logP came out at 2.14. In turn, `CCN(OC)C(=O)c1cc(-c2ncnc(Nc3cccc(C(F)F)c3)n2)ccn1` [B413] registered a lipophilicity (logP) of 2.64. The compound `CCC(=NOC(C)C1CC1)c1cc(-c2ncnc(Nc3cccc(Cl)c3)n2)ccn1` (mixture of isomers) [B84] yielded a log partition coefficient (logP) of 6.24. As for `CCN(C)C(=O)c1cc(-c2ccnc(Nc3ccnc(Cl)c3)n2)ccn1` [Example A17, 4-{2-[(2-chloropyridin-4-yl)amino]pyrimidin-4-yl}-N-ethyl-N-methylpyridine-2-carboxamide], the chromatographic logP stood at 1.91. As to `Cc1ccc(Nc2ncnc(-c3ccnc(C(=O)N(C)C(C)C)c3)n2)cc1Cl` [Example B365], the lipophilicity (logP) turned out to be 3.33. Turning to `CCCN(CC)C(=O)c1cc(-c2ccnc(Nc3ccnc(Cl)c3)n2)ccn1` [Example A26], the logP turned out to be 2.51. Same read-out and setting: the same measure for `O=C(c1cc(Nc2nccc(-c3ccnc(C(=O)N4CCOCC4)c3)n2)ccn1)N1CCOCC1` [Example A23]: 0.92; for `CC(C)CN(C)C(=O)c1cc(-c2ncnc(Nc3ccc(F)c(C(F)F)c3)n2)ccn1` [Example B395]: 3.15.

As to `Cc1ccc(Nc2ncnc(-c3ccnc(C(=O)N(C)CC4CC4)c3)n2)cc1Cl` [Example B367], the logP was found to be 3.53. On the same count and under the same terms, the same measure for `CN1CCN(C(=O)c2cc(-c3ncnc(Nc4cccc(Cl)c4)n3)ccn2)CC1` [Example B184]: 1.5. Still for that read-out and setting: the same measure for `CON(C)C(=O)c1cc(-c2ncnc(Nc3cccc(C(F)F)c3)n2)ccn1` [B412]: 2.34. In the case of `CC(=NOCC1CC1)c1cc(-c2ncnc(Nc3cccc(Cl)c3)n2)ccn1` (mixture of isomers) [Example B34], the lipophilicity (logP) is 4.94.

Compound `CCN(C)C(=O)c1cc(-c2ncnc(Nc3cccc(OC(F)(F)C(F)F)c3)n2)ccn1` [Example B260] registered a logP of 2.92. Same read-out and setting: in the case of `CCON(CC)C(=O)c1cc(-c2ncnc(Nc3ccsc3)n2)ccn1` [Example C31] it was 2.59. The compound `CCC(COC)NC(=O)c1cc(-c2ncnc(Nc3ccc(F)c(Cl)c3)n2)ccn1` (stereo not drawn) [Example B195] displayed a logP of 3.89. Still for that read-out and setting: in the case of `CCN(C)C(=O)c1cc(-c2ncnc(Nc3cccc(COC)c3)n2)ccn1` [Example B245] it was 2.17; in that of `CC(C)C(=O)O/N=C(/N)c1cc(-c2ncnc(Nc3cccc(Cl)c3)n2)ccn1` [B107], 3.69; in that of `CCC(CC)NC(=O)c1cc(-c2ncnc(Nc3cccc(Cl)c3)n2)ccn1` [B63], 4.22.

Turning to `CC(C)N(C)C(=O)c1cc(-c2ncnc(Nc3ccc(F)cc3)n2)ccn1` [Example B21], the logP came to 2.55. Consider `CCOc1cccc(Nc2ncnc(-c3ccnc(C(=S)N(C)CC)c3)n2)c1` [Example B255], for which the logP was 3.15.

Consider `CCN(C)C(=O)c1cc(-c2ncnc(Nc3ccc(F)c(C(F)F)c3)n2)ccn1` [Example B394], for which the lipophilicity (logP) came to 2.55.

In turn, `CC1CCCN(C(=O)c2cc(-c3ncnc(Nc4cccc(Cl)c4)n3)ccn2)C1` (stereo not drawn) [Example B135] yielded a logP of 3.48. Still for that read-out and setting: the same measure for `CN(CCC#N)C(=O)c1cc(-c2ncnc(Nc3cccc(Cl)c3)n2)ccn1` [Example B129]: 2.51. For `CN(C)C(=O)c1cc(-c2ncnc(Nc3cccc(F)c3)n2)ccn1` [Example B5], the logP was found to be 2.13. On to `CCC(C)NC(=O)c1cc(-c2ncnc(Nc3cccc(Cl)c3)n2)ccn1` (stereo not drawn) [Example B94], for which the logP is reported as 4.04. Take `O=C(NCC1CC1)c1cc(-c2ncnc(Nc3cccc(Cl)c3)n2)ccn1` [B99]: the log partition coefficient (logP) is given as 3.73.

`Cc1ccc(Nc2ncnc(-c3ccnc(C(=O)NC(C)C)c3)n2)cc1Cl` [B230] displayed a logP of 4.04. Same read-out and setting: in the case of `COCC(C1CC1)N(C)C(=O)c1cc(-c2ncnc(Nc3cccc(Cl)c3)n2)ccn1` (stereo not drawn) [Example B188] it was 3.09; in that of `CCCCN(C)C(=O)c1cc(-c2ncnc(Nc3cccc(F)c3)n2)ccn1` [Example B376], 3.09. On the same count and under the same terms, in the case of `CCCN(C)C(=O)c1cc(Nc2nccc(-c3ccnc(C(=O)N(C)CCC)c3)n2)ccn1` [Example A14] it was 1.59. Compound `CCN(CC)C(=O)c1cc(-c2ncnc(Nc3cccc(OC(F)(F)F)c3)n2)ccn1` [Example B263] returned a logP of 3.39. In turn, `O=C(NCCCCN1CCCC1=O)c1cc(-c2ncnc(Nc3cccc(Cl)c3)n2)ccn1` [B96] came in with a logP of 2.73. The compound `CN(C)C(=O)c1cc(-c2ncnc(Nc3cccc(OC(F)(F)F)c3)n2)ccn1` [Example B266] gave a logP of 2.7. On to `CN(CCC#N)C(=S)c1cc(-c2ncnc(Nc3cccc(Cl)c3)n2)ccn1` [Example B343], for which the logP was found to be 3.02. In turn, `CCCN(C)C(=O)c1cc(-c2ncnc(Nc3ccc(F)c(F)c3)n2)ccn1` [Example B379] returned a logP of 2.86. The same measure, in the same setting: the same measure for `COCCN(C)C(=O)c1cc(-c2ncnc(Nc3cccc(Cl)c3)n2)ccn1` [Example B172]: 2.57. Still for that read-out and setting: the same measure for `CCC(C)NC(=O)c1cc(-c2ncnc(Nc3ccc(C)c(Cl)c3)n2)ccn1` (stereo not drawn) [B232]: 4.49. On the same count and under the same terms, in the case of `CN(CCC#N)C(=O)c1cc(-c2ncnc(Nc3ccc(Cl)c(C(F)F)c3)n2)ccn1` [Example B389] it was 2.69.

With `CCN(C)C(=O)c1cc(-c2ncnc(Nc3cccc(C(F)F)c3)n2)ccn1` [Example B400], the logP was 2.44. On the same count and under the same terms, in the case of `CC(C)C(C)NC(=O)c1cc(-c2ncnc(Nc3cccc(Cl)c3)n2)ccn1` (stereo not drawn) [B62] it was 4.3. Still for that read-out and setting: in the case of `CN(CCC#N)C(=O)c1cc(-c2ncnc(Nc3cccc(C(F)(F)F)c3)n2)ccn1` [Example B363] it was 2.68. `O=C(NCCCN1CCCCCC1=O)c1cc(-c2ccnc(Nc3ccnc(Cl)c3)n2)ccn1` [Example A20]: the log partition coefficient (logP) is given as 2.33.

Compound `CC(C)N(C)C(=O)c1cc(-c2ncnc(Nc3cccc(C(F)(F)F)c3)n2)ccn1` [B360] returned a logP of 3.15. Take `CC(C)N(C)C(=S)c1cc(-c2ncnc(Nc3ccc(F)c(C(F)F)c3)n2)ccn1` [Example B329]: the log partition coefficient (logP) turned out to be 3.29. Same read-out and setting: in the case of `CCN(CC(C)(C)O)C(=O)c1cc(-c2ncnc(Nc3cccc(Cl)c3)n2)ccn1` [Example B166] it was 2.66; in that of `COc1cccc(Nc2ncnc(-c3ccnc(C(=O)N(C)CCC#N)c3)n2)c1` [Example B272], 2.11; in that of `CN(CCC#N)C(=O)c1cc(-c2ncnc(Nc3ccsc3)n2)ccn1` [Example C12], 1.89. For the compound `CN(CCC#N)C(=O)c1cc(-c2ncnc(Nc3cccc(C#N)c3)n2)ccn1` [Example B291], the logP came out at 1.99.

`COC1CCN(C(=O)c2cc(-c3ncnc(Nc4cccc(Cl)c4)n3)ccn2)CC1` [Example B169] showed a log partition coefficient (logP) of 2.68. Still for that read-out and setting: the same measure for `COCC(C)NC(=O)c1cc(-c2ncnc(Nc3cccc(SC)c3)n2)ccn1` (stereo not drawn) [B212]: 3.31; for `CCN(CC)C(=O)c1cc(-c2ncnc(Nc3cccc(F)c3)n2)ccn1` [Example B2]: 2.72; for `CC(=O)Nc1cccc(Nc2ncnc(-c3ccnc(C(=O)N(C)C)c3)n2)c1` [Example B307]: 1.4. The same measure, in the same setting: the same measure for `CCN(C)C(=S)c1cc(-c2ncnc(Nc3cccc(OC(F)(F)F)c3)n2)ccn1` [Example B271]: 3.57; for `O=CNCCCNC(=O)c1cc(-c2ncnc(Nc3cccc(Cl)c3)n2)ccn1` [B178]: 2.26; for `CCC(=NOCc1ccc(OC)cc1)c1cc(-c2ncnc(Nc3cccc(Cl)c3)n2)ccn1` (mixture of isomers) [B68]: 5.46. Still for that read-out and setting: in the case of `CCN(CC)C(=O)c1cc(-c2ncnc(Nc3ccc(C)c(Cl)c3)n2)ccn1` [Example B349] it was 3.44; in that of `CN(C)C(=O)c1cc(-c2ncnc(Nc3cc(F)ccc3F)n2)ccn1` [Example B354], 2.1.

`CCCON=C(C)c1cc(-c2ncnc(Nc3cccc(Cl)c3)n2)ccn1` (mixture of isomers) [Example B43]: the lipophilicity (logP) turned out to be 5.13. `CCCN(C)C(=S)c1cc(-c2ncnc(Nc3cccc(Cl)c3)n2)ccn1` [Example B336]: the logP was 3.65.

The same data set, now with this note: pH 7.8.
Turning to `CCN(OC)C(=O)c1cc(-c2ncnc(Nc3ccsc3)n2)ccn1` [Example C32], the lipophilicity (logP) is 2.33^[c]. Consider `NC(=O)c1cc(-c2ncnc(Nc3cccc(C(F)F)c3)n2)ccn1` [B405], for which the logP was 2.04^[c].

The values are drawn from patent publication US20110218188A1, “SUBSTITUTED (PYRIDYL)-AZINYLAMINE DERIVATIVES AS FUNGICIDES” (priority 2008, published 2011).
